Source: ChEMBL document CHEMBL3600303, “The N-Terminal T-T Motif of a Third-Generation HIV-1 Fusion Inhibitor Is Not Required for Binding Affinity and Antiviral Activity” (J Med Chem, 2015)

Experiments:
[1] = system: Human immunodeficiency virus 1; assay: Antiviral activity against wild type HIV1 NL4-3 infected in human TZM-bl cells assessed as inhibition of viral entry into cells after 48 hrs by single-cycle infection assay; type: functional, organism-based; conditions: Human immunodeficiency virus 1, NL4-3, TZM-bl
[2] = system: Human immunodeficiency virus 1; assay: Antiviral activity against ENF-resistant HIV1 NL4-3 harboring gp41 N-terminal heptad repeat D36G mutant infected in human TZM-bl cells assessed as inhibition of viral entry into cells after 48 hrs by single-cycle infection assay; type: functional, organism-based
[3] = system: Human immunodeficiency virus 1; assay: Antiviral activity against ENF-resistant HIV1 NL4-3 harboring gp41 N-terminal heptad repeat I37T mutant infected in human TZM-bl cells assessed as inhibition of viral entry into cells after 48 hrs by single-cycle infection assay; type: functional, organism-based
[4] = system: Human immunodeficiency virus 1; assay: Antiviral activity against ENF-resistant HIV1 NL4-3 harboring gp41 N-terminal heptad repeat V38A mutant infected in human TZM-bl cells assessed as inhibition of viral entry into cells after 48 hrs by single-cycle infection assay; type: functional, organism-based
[5] = system: Human immunodeficiency virus 1; assay: Antiviral activity against ENF-resistant HIV1 NL4-3 harboring gp41 N-terminal heptad repeat V38M mutant infected in human TZM-bl cells assessed as inhibition of viral entry into cells after 48 hrs by single-cycle infection assay; type: functional, organism-based
[6] = system: Human immunodeficiency virus 1; assay: Antiviral activity against ENF-resistant HIV1 NL4-3 harboring gp41 N-terminal heptad repeat Q40H mutant infected in human TZM-bl cells assessed as inhibition of viral entry into cells after 48 hrs by single-cycle infection assay; type: functional, organism-based
[7] = system: Human immunodeficiency virus 1; assay: Antiviral activity against ENF-resistant HIV1 NL4-3 harboring gp41 N-terminal heptad repeat N43K mutant infected in human TZM-bl cells assessed as inhibition of viral entry into cells after 48 hrs by single-cycle infection assay; type: functional, organism-based
[8] = system: Human immunodeficiency virus 1; assay: Antiviral activity against ENF-resistant HIV1 NL4-3 harboring gp41 N-terminal heptad repeat D36S/V38M double mutant infected in human TZM-bl cells assessed as inhibition of viral entry into cells after 48 hrs by single-cycle infection assay; type: functional, organism-based
[9] = system: Human immunodeficiency virus 1; assay: Antiviral activity against ENF-resistant HIV1 NL4-3 harboring gp41 N-terminal heptad repeat I37T/N43K double mutant infected in human TZM-bl cells assessed as inhibition of viral entry into cells after 48 hrs by single-cycle infection assay; type: functional, organism-based
[10] = system: Human immunodeficiency virus 1; assay: Antiviral activity against ENF-resistant HIV1 NL4-3 harboring gp41 N-terminal heptad repeat V38A/N42T double mutant infected in human TZM-bl cells assessed as inhibition of viral entry into cells after 48 hrs by single-cycle infection assay; type: functional, organism-based
[11] = system: Human immunodeficiency virus 1; assay: Ratio of IC50 for ENF-resistant HIV1 NL4-3 harboring gp41 N-terminal heptad repeat D36G mutant to IC50 for wild type HIV1 NL4-3; type: functional
[12] = system: Human immunodeficiency virus 1; assay: Ratio of IC50 for ENF-resistant HIV1 NL4-3 harboring gp41 N-terminal heptad repeat I37T mutant to IC50 for wild type HIV1 NL4-3; type: functional
[13] = system: Human immunodeficiency virus 1; assay: Ratio of IC50 for ENF-resistant HIV1 NL4-3 harboring gp41 N-terminal heptad repeat V38A mutant to IC50 for wild type HIV1 NL4-3; type: functional
[14] = system: Human immunodeficiency virus 1; assay: Ratio of IC50 for ENF-resistant HIV1 NL4-3 harboring gp41 N-terminal heptad repeat V38M mutant to IC50 for wild type HIV1 NL4-3; type: functional
[15] = system: Human immunodeficiency virus 1; assay: Ratio of IC50 for ENF-resistant HIV1 NL4-3 harboring gp41 N-terminal heptad repeat Q40H mutant to IC50 for wild type HIV1 NL4-3; type: functional
[16] = system: Human immunodeficiency virus 1; assay: Ratio of IC50 for ENF-resistant HIV1 NL4-3 harboring gp41 N-terminal heptad repeat N43K mutant to IC50 for wild type HIV1 NL4-3; type: functional
[17] = system: Human immunodeficiency virus 1; assay: Ratio of IC50 for ENF-resistant HIV1 NL4-3 harboring gp41 N-terminal heptad repeat D36S/V38M double mutant to IC50 for wild type HIV1 NL4-3; type: functional
[18] = system: Human immunodeficiency virus 1; assay: Ratio of IC50 for ENF-resistant HIV1 NL4-3 harboring gp41 N-terminal heptad repeat I37T/N43K double mutant to IC50 for wild type HIV1 NL4-3; type: functional
[19] = system: Human immunodeficiency virus 1; assay: Ratio of IC50 for ENF-resistant HIV1 NL4-3 harboring gp41 N-terminal heptad repeat V38A/N42T double mutant to IC50 for wild type HIV1 NL4-3; type: functional
[20] = system: Human immunodeficiency virus 1; assay: Ratio of IC50 for wild type HIV1 NL4-3 to IC50 for ENF-resistant HIV1 NL4-3 harboring gp41 N-terminal heptad repeat D36G mutant; type: functional
[21] = system: Human immunodeficiency virus 1; assay: Ratio of IC50 for ENF-resistant HIV1 NL4-3 harboring gp41 N-terminal heptad repeat I37T mutant to IC50 for ENF-resistant HIV1 NL4-3 harboring gp41 N-terminal heptad repeat D36G mutant; type: functional
[22] = system: Human immunodeficiency virus 1; assay: Ratio of IC50 for ENF-resistant HIV1 NL4-3 harboring gp41 N-terminal heptad repeat V38A mutant to IC50 for ENF-resistant HIV1 NL4-3 harboring gp41 N-terminal heptad repeat D36G mutant; type: functional
[23] = system: Human immunodeficiency virus 1; assay: Ratio of IC50 for ENF-resistant HIV1 NL4-3 harboring gp41 N-terminal heptad repeat V38M mutant to IC50 for ENF-resistant HIV1 NL4-3 harboring gp41 N-terminal heptad repeat D36G mutant; type: functional
[24] = system: Human immunodeficiency virus 1; assay: Ratio of IC50 for ENF-resistant HIV1 NL4-3 harboring gp41 N-terminal heptad repeat Q40H mutant to IC50 for ENF-resistant HIV1 NL4-3 harboring gp41 N-terminal heptad repeat D36G mutant; type: functional
[25] = system: Human immunodeficiency virus 1; assay: Ratio of IC50 for ENF-resistant HIV1 NL4-3 harboring gp41 N-terminal heptad repeat N43K mutant to IC50 for ENF-resistant HIV1 NL4-3 harboring gp41 N-terminal heptad repeat D36G mutant; type: functional
[26] = system: Human immunodeficiency virus 1; assay: Ratio of IC50 for ENF-resistant HIV1 NL4-3 harboring gp41 N-terminal heptad repeat D36S/V38M double mutant to IC50 for ENF-resistant HIV1 NL4-3 harboring gp41 N-terminal heptad repeat D36G mutant; type: functional
[27] = system: Human immunodeficiency virus 1; assay: Ratio of IC50 for ENF-resistant HIV1 NL4-3 harboring gp41 N-terminal heptad repeat I37T/N43K double mutant to IC50 for ENF-resistant HIV1 NL4-3 harboring gp41 N-terminal heptad repeat D36G mutant; type: functional
[28] = system: Human immunodeficiency virus 1; assay: Ratio of IC50 for ENF-resistant HIV1 NL4-3 harboring gp41 N-terminal heptad repeat V38A/N42T double mutant to IC50 for ENF-resistant HIV1 NL4-3 harboring gp41 N-terminal heptad repeat D36G mutant; type: functional

enfuvirtide was tested, and the IC50 [1] was 90.2 nM, the IC50 [2] was 9.1 nM and the IC50 [3] was 618 nM. For the same substance, the IC50 [4] was 709 nM, the IC50 [5] was 268 nM and the IC50 [6] was 1450 nM. The IC50 [7] was 467 nM, the IC50 [8] was 240 nM and the IC50 [9] was over 2250 nM. For the same substance, the IC50 [10] was over 2250 nM, the “Ratio IC50” value [11] was 0.1 and the “Ratio IC50” value [12] was 6.9. The “Ratio IC50” value [13] was 7.9, the “Ratio IC50” value [14] was 3 and the “Ratio IC50” value [15] was 16.1. For the same substance, the “Ratio IC50” value [16] was 5.2, the “Ratio IC50” value [17] was 2.7 and the “Ratio IC50” value [18] was over 25. For the same substance, the “Ratio IC50” value [19] was over 25, the “Ratio IC50” value [20] was 9.9 and the “Ratio IC50” value [21] was 68. For the same substance, the “Ratio IC50” value [22] was 77.9, the “Ratio IC50” value [23] was 29.4 and the “Ratio IC50” value [24] was 159.8. The “Ratio IC50” value [25] was 51.3, the “Ratio IC50” value [26] was 26.4 and the “Ratio IC50” value [27] was 247.3. For the same substance, the “Ratio IC50” value [28] was 247.3.
